Assay: Weights, CBC, blood chemistry and signs of toxicity, Table S1 sheet PD-2 (infected Aotus, twice a day for seven days)
Format: in vivo, Aotus lemurinus lemurinus
Settings: oral 10 mg/kg twice a day/7 days
Procedure: Laboratory bred Aotus lemurinus lemurinus monkeys (0.75–0.89 kg) were maintained as described. […] Blood samples were collected before the treatment started (t = 0), 0.05 h, 0.5 h, 1 h, 2 h, 6 h, 24 h, 48 h, and 6, 12 and 18 days after the first dose from each monkey and processed as described below. Pharmacokinetic parameters were calculated using PKSolver. For efficacy studies, Aotus monkeys were inoculated intravenously with 5×10^6 parasites of the FVO strain of P. falciparum in an approved treatment protocol. […] Parasitaemia was determined by Giemsa-stained thick blood smears prepared daily from the marginal ear vein [41]. Blood samples were collected from each monkey and transferred to tubes containing lithium heparin, centrifuged and both plasma and blood cells were frozen at −80 °C until analysis. Animals received a physical examination and blood chemistry profiles were monitored after treatment as described previously. Any monkey not responding appropriately to treatment was cured of its infection with mefloquine (40 mg kg^−1). […] The day of clearance is defined as the first of three consecutive days in which the thick blood films are parasite negative. The day of recrudescence is the first of three consecutive days of positive thick blood films after a period of clearance. Suppression is defined as a transient decrease in the parasite count post-treatment without clearance.

Compound: Nc1nc2c(CN3CC(O)C(CO)C3)c[nH]c2c(=O)[nH]1 (stereo not shown) [BCX4945, 4′-deaza-1′-aza-2′-deoxy-1′-(9-methylene)-Immucillin-G]
- Mean Corpuscular Volume (25044 Male (ITM2), day 25): 86 fL
- Mean Hemoglobin Content (25044 Male (ITM2), day 25): 32.1 g/dL
- Mean Platelet Volume (25044 Male (ITM2), day 25): 12.7 fL
- Monocytes (%) (25044 Male (ITM2), day 25): 9.5%
- Monocytes (x 103/ul) (25044 Male (ITM2), day 25): 1.9 x 103/ul
- Platelets (25044 Male (ITM2), day 25): 166000 µL⁻¹
- Red Cell Distribution Width (25044 Male (ITM2), day 25): 22.2%
- Reticulocytes (25044 Male (ITM2), day 25): 2.6%
- WEIGHT (25044 Male (ITM2), day 25): 827 g
- Blood Urea Nitrogen (25044 Male (ITM2), day -10): 11.3 mg/dL
- Creatine (25044 Male (ITM2), day -10): 0.5 mg/dL
- Erythrocytes (25044 Male (ITM2), day -10): 5.93e+06 µL⁻¹
- Glutamate Pyruvate Transaminase (25044 Male (ITM2), day -10): 17.1 U/L
- Granulocytes (%) (25044 Male (ITM2), day -10): 13.3%
- Granulocytes (x 103/ul) (25044 Male (ITM2), day -10): 4.2 x 103/ul
- Hematocrit (25044 Male (ITM2), day -10): 44.6%
- Hemoglobin (25044 Male (ITM2), day -10): 15.8 g/dL
- Leucocytes (25044 Male (ITM2), day -10): 31300 µL⁻¹
- Lymphocytes (%) (25044 Male (ITM2), day -10): 76.1%
- Lymphocytes (x 103/ul) (25044 Male (ITM2), day -10): 23.8 x 103/ul
- Mean Corpuscular Hemoglobin (25044 Male (ITM2), day -10): 26.7 pg
- Mean Corpuscular Volume (25044 Male (ITM2), day -10): 75.2 fL
- Mean Hemoglobin Content (25044 Male (ITM2), day -10): 35.5 g/dL
- Mean Platelet Volume (25044 Male (ITM2), day -10): 13.1 fL
- Monocytes (%) (25044 Male (ITM2), day -10): 10.6%
- Monocytes (x 103/ul) (25044 Male (ITM2), day -10): 3.3 x 103/ul
- Platelets (25044 Male (ITM2), day -10): 236000 µL⁻¹
- Red Cell Distribution Width (25044 Male (ITM2), day -10): 13%
- Reticulocytes (25044 Male (ITM2), day -10): 1.2%
- WEIGHT (25044 Male (ITM2), day -10): 814 g
- Blood Urea Nitrogen (26027 Male (ITM3), day 8): 12.75 mg/dL
- Creatine (26027 Male (ITM3), day 8): 0.5 mg/dL
- Erythrocytes (26027 Male (ITM3), day 8): 4.51e+06 µL⁻¹
- Glutamate Pyruvate Transaminase (26027 Male (ITM3), day 8): 28.1 U/L
- Granulocytes (%) (26027 Male (ITM3), day 8): 18.4%
- Granulocytes (x 103/ul) (26027 Male (ITM3), day 8): 2.2 x 103/ul
- Hematocrit (26027 Male (ITM3), day 8): 36.2%
- Hemoglobin (26027 Male (ITM3), day 8): 13.0 g/dL
- Leucocytes (26027 Male (ITM3), day 8): 11800 µL⁻¹
- Lymphocytes (%) (26027 Male (ITM3), day 8): 70.2%
- Lymphocytes (x 103/ul) (26027 Male (ITM3), day 8): 8.3 x 103/ul
- Mean Corpuscular Hemoglobin (26027 Male (ITM3), day 8): 28.9 pg
- Mean Corpuscular Volume (26027 Male (ITM3), day 8): 80.2 fL
- Mean Hemoglobin Content (26027 Male (ITM3), day 8): 36 g/dL
- Mean Platelet Volume (26027 Male (ITM3), day 8): 11.7 fL
- Monocytes (%) (26027 Male (ITM3), day 8): 11.4%
- Monocytes (x 103/ul) (26027 Male (ITM3), day 8): 1.3 x 103/ul
- Platelets (26027 Male (ITM3), day 8): 216000 µL⁻¹
- Red Cell Distribution Width (26027 Male (ITM3), day 8): 11.8%
- Reticulocytes (26027 Male (ITM3), day 8): 1.4%
- WEIGHT (26027 Male (ITM3), day 8): 890 g
- Blood Urea Nitrogen (26027 Male (ITM3), day 12): 12.9 mg/dL
- Creatine (26027 Male (ITM3), day 12): 0.5 mg/dL
- Erythrocytes (26027 Male (ITM3), day 12): 4.4e+06 µL⁻¹
- Glutamate Pyruvate Transaminase (26027 Male (ITM3), day 12): 33.4 U/L
- Granulocytes (%) (26027 Male (ITM3), day 12): 26.5%
- Granulocytes (x 103/ul) (26027 Male (ITM3), day 12): 4.8 x 103/ul
- Hematocrit (26027 Male (ITM3), day 12): 36.1%
- Hemoglobin (26027 Male (ITM3), day 12): 13.1 g/dL
- Leucocytes (26027 Male (ITM3), day 12): 18200 µL⁻¹
- Lymphocytes (%) (26027 Male (ITM3), day 12): 67.6%
- Lymphocytes (x 103/ul) (26027 Male (ITM3), day 12): 12.3 x 103/ul
- Mean Corpuscular Hemoglobin (26027 Male (ITM3), day 12): 29.8 pg
- Mean Corpuscular Volume (26027 Male (ITM3), day 12): 82.1 fL
- Mean Hemoglobin Content (26027 Male (ITM3), day 12): 36.3 g/dL
- Mean Platelet Volume (26027 Male (ITM3), day 12): 12.2 fL
- Monocytes (%) (26027 Male (ITM3), day 12): 5.9%
- Monocytes (x 103/ul) (26027 Male (ITM3), day 12): 1.1 x 103/ul
- Platelets (26027 Male (ITM3), day 12): 339000 µL⁻¹
- Red Cell Distribution Width (26027 Male (ITM3), day 12): 12.1%
- Reticulocytes (26027 Male (ITM3), day 12): 2.6%
- WEIGHT (26027 Male (ITM3), day 12): 890 g
- Blood Urea Nitrogen (26027 Male (ITM3), day 15): 17.15 mg/dL
- Creatine (26027 Male (ITM3), day 15): 0.512 mg/dL
- Erythrocytes (26027 Male (ITM3), day 15): 4.77e+06 µL⁻¹
- Glutamate Pyruvate Transaminase (26027 Male (ITM3), day 15): 27.1 U/L
- Granulocytes (%) (26027 Male (ITM3), day 15): 32.6%
- Granulocytes (x 103/ul) (26027 Male (ITM3), day 15): 4 x 103/ul
- Hematocrit (26027 Male (ITM3), day 15): 40.6%
- Hemoglobin (26027 Male (ITM3), day 15): 14.5 g/dL
- Leucocytes (26027 Male (ITM3), day 15): 12200 µL⁻¹
- Lymphocytes (%) (26027 Male (ITM3), day 15): 63%
- Lymphocytes (x 103/ul) (26027 Male (ITM3), day 15): 7.7 x 103/ul
- Mean Corpuscular Hemoglobin (26027 Male (ITM3), day 15): 30.4 pg
- Mean Corpuscular Volume (26027 Male (ITM3), day 15): 85 fL
- Mean Hemoglobin Content (26027 Male (ITM3), day 15): 35.8 g/dL
- Monocytes (%) (26027 Male (ITM3), day 15): 4.4%
- Monocytes (x 103/ul) (26027 Male (ITM3), day 15): 0.5 x 103/ul
- Platelets (26027 Male (ITM3), day 15): 245000 µL⁻¹
- Red Cell Distribution Width (26027 Male (ITM3), day 15): 18.5%
- Reticulocytes (26027 Male (ITM3), day 15): 3.1%

— publication PMC3214022, “Plasmodium falciparum Parasites Are Killed by a Transition State Analogue of Purine Nucleoside Phosphorylase in a Primate Animal Model” (PLoS ONE, 2011)
